We go through one compound from ChEMBL document CHEMBL3638757, “Pyridazinones, method of making, and method of use thereof” (2015).

Molecules are shown by their SMILES.

The assay has as its target Tyrosine-protein kinase BTK (Homo sapiens, UniProt Q06187). Put plainly: Biochemical Assay: A generalized procedure for a standard biochemical Btk Kinase Assay that can be used to test Formula I compounds is as follows. A master mix minus Btk enzyme is prepared containing IX Cell Signaling kinase buffer (25 mM Tris-HCl, pH 7.5, 5 mM beta- glycerophosphate, 2 mM dithiothreitol, 0.1 mM Na3V04, 10 mM MgCl2), 0.5 ul Promega PTK Biotinylated peptide substrate 2, and 0.01% BSA. A master mix plus Btk enzyme is prepared containing IX Cell Signaling kinase buffer, 0.5 ul PTK Biotinylated peptide substrate 2, 0.01% BSA, and 100 ng/well (0.06 mU/well) Btk enzyme. Btk enzyme is prepared as follows: full length human wildtype Btk (accession number NM-000061) with a C-terminal V5 and 6x His tag was subcloned into pFastBac vector for making baculo virus carrying this epitope-tagged Btk. Generation of baculovirus is done based on Invitrogen's instructions detailed in its published protocol "Bac-to-Bac Baculovirus Expression Systems".

Sequence of Tyrosine-protein kinase BTK (Q06187 whole entry): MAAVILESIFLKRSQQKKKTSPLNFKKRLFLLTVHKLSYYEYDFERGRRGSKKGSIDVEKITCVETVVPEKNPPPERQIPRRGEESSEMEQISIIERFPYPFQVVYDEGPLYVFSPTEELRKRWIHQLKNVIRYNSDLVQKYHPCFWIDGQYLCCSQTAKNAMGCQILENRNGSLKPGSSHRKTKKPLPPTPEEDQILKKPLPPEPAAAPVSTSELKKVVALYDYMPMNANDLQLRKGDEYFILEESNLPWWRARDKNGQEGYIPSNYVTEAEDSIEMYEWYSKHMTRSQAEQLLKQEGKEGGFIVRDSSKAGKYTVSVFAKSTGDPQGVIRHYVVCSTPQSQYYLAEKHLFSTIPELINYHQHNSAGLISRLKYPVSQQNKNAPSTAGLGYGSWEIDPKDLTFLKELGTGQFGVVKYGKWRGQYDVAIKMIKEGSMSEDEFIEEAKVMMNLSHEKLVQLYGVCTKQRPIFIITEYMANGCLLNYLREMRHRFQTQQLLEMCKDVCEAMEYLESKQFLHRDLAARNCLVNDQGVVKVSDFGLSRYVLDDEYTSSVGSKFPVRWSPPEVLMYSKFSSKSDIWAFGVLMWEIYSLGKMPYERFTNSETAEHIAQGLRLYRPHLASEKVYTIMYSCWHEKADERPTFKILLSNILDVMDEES

`Cc1cc(Nc2cc(-c3ccc(F)c(N4Cc5cc(C(C)(C)C)sc5C4=O)c3)n[nH]c2=O)nn1C`: the half-maximal inhibitory concentration (IC50) was 9 nM.

A word on the IC50: it is the point on the concentration scale where inhibition reaches its midpoint.
